Data on three molecules can be found in patent publication US20250332173A1, “COMPOUNDS AND METHODS FOR MODULATING NUCLEIC ACID SPLICING” (REMIX THERAPEUTICS INC., priority 2021, published 2025).

Usually IC50 stands for the point on the concentration scale where inhibition reaches its midpoint. The term AC50 denotes the concentration giving half of the maximal activity seen.

The test system of test [1] is Target C. In words: HiBiT protein abundance assay, Target C HiBiT K562 cell line. In kind it is cell-based. As to conditions: Homo sapiens; HiBiT lytic detection, modified K562 cells, 24 hours, top dose 10 μM; read-out: Effect on protein abundance, Target C (IC50). The protocol:
• Promega Nano-Glo HiBiT Lytic Detection System (cat #N3030) • Corning 384-well TC-treated microplates (cat #3570) • Synthego Engineered Cells Knock-In Clones
Cells were maintained in IMDM with 10% FBS. Before the assay, cells were diluted with […] growth media (IMDM+[…] media) and were seeded in a 384-well plate at a density of 10,000 cells/well (for each cell line listed in Table 5). Each compound was prepared as a 10-point 3-fold serial dilution in DMSO with the top dose at a final concentration of 10 μM in the well. Unmodified K562 cells were added at the previously specified density with DMSO to serve as an assay baseline and positive control (PC) and DMSO only with the respective modified cell lines was added to the negative control (NC) columns. Final DMSO concentration was kept at or below 0.25%. Treated cell plates were placed in an incubator at 37° C. with […] for 24 hours. After 24 hours, 25 μL of Complete HiBit Lytic reagent was added to each well at room temperature (e.g. one plate requiring 10 mL Lytic Buffer, 100 μL LgBiT Protein, 200 μL Lytic Substrate), shaken for 5 minutes at 600 RPM, then left to sit for 10 minutes for signal to stabilize before reading on a Spark Cyto plate reader (Tecan) with a 500 ms measurement time.
To determine compound effects on protein abundance of each target in Table 5, the percent response for each respective cell line was calculated at each compound concentration as follows:
For the normalized response at each concentration, a four-parameter logistical regression was fit to the data and the response was interpolated at the […] to determine a concentration for protein abundance at […] the untreated control.
On the technique in general: HiBiT is a short tag that completes a luciferase, so light tracks the accessible tagged protein.

Test [2] deals with HTT mRNA. The test is described as follows: RT-qPCR splicing assay, HTT canonical junction (CJ) and alternative junction (AJ) mRNA. It counts as cell-based, human. The conditions noted are these: Homo sapiens; for AC50: increase in HTT alternative junction (AJ) mRNA, read-out: HTT AJ AC50. In a few lines: (§1)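 24 h treatment, 37 °C/5% CO2; A673 or K562; 11-pt 3-fold series, top 10 uM final; DMSO ≤0.25%. Cell lysis with DNase I, then 1-step RT-qPCR. Housekeeping normalization: PPIA (A673), GAPDH or GUSB (K562).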

For test [3], the system named is MYB mRNA. In words: RT-qPCR splicing assay, MYB canonical junction (CJ) and alternative junction (AJ) mRNA. In kind it is cell-based, human. The conditions noted are these: Homo sapiens; for AC50: increase in MYB alternative junction (AJ) mRNA, read-out: MYB AJ AC50. In a few lines:
as §1
(In qPCR the cycle at which signal appears reflects the starting amount.)

[4] abbreviates: decrease in HTT canonical junction (CJ) mRNA, RT-qPCR, read-out: HTT CJ IC50.
Setting [5] is: Table 5 panel, canonical junction qPCR, compound concentration having 50% response in CJ decrease, read-out: HTT IC50 (decrease in CJ mRNA levels).
[6] abbreviates: Table 5 panel, canonical junction qPCR, compound concentration having 50% response in CJ decrease, read-out: MYB IC50 (decrease in CJ mRNA levels).
Setting [7] is: decrease in MYB canonical junction (CJ) mRNA, RT-qPCR, read-out: MYB CJ IC50.

Like-named read-outs stand apart in the source and are kept apart here.

`CNC1CCN(c2ccc3cc(-c4cc(C)c5nc(C)cn5n4)ccn3c2=O)C1` (stereo not drawn) [Compound 1158]: the IC50 fell in the range of 1000 to 10000 nM in test [1]; 1000 to 10000 nM in test [2] (setting [4]); 100 to 1000 nM in test [2] (setting [5]); 100 to 1000 nM in test [3] (setting [6]); 100 to 1000 nM in test [3] (setting [7]). The AC50 in test [2] (RT-qPCR) and in test [3] (RT-qPCR) was 100 to 1000 nM each time.

For `Cc1cn2nc(-c3ccn4c(=O)c(C5CCNCC5)ccc4c3)cc(C)c2n1` [Compound 1181], the IC50 in test [1], in test [2] (setting [4]), in test [2] (setting [5]), in test [3] (setting [6]) and in test [3] (setting [7]) was less than 100 nM each time. Moreover, the half-maximal activity concentration (AC50) in test [2] (RT-qPCR) and in test [3] (RT-qPCR) was less than 100 nM in each case.

Turning to `Cc1cn2nc(-c3ccn4c(=O)c(C5=CCNCC5)ncc4c3)cc(C)c2n1` [Compound 1182], the IC50 in test [1], in test [2] (setting [4]), in test [2] (setting [5]), in test [3] (setting [6]) and in test [3] (setting [7]) was 100 to 1000 nM in each case. The concentration at half-maximal activity (AC50) in test [2] (RT-qPCR) and in test [3] (RT-qPCR) was 100 to 1000 nM each time.
